Data: patent US20240381822A1, “PLANT PART QUALITY” (Valent BioSciences LLC, priority 2023, published 2024)

Key:
Type in all cases: in vivo
[1] = tested on: Flamin' Fury® variety Peaches; test: Flesh browning of peaches after cold storage (Example 1); conditions: for % Healthy Fruit: 1-minute dip, 5 degrees Celsius 4 weeks, 1 day room temperature, flesh browning score less than 3
Experimental: ' Fury® variety Peaches were harvested and maintained at room temperature until treatment. Peaches were divided into 9 equal sets. Each treatment type contained 15 peaches and was repeated 3 times for a total of 45 peaches per treatment. For treatment, water, (S)-abscisic acid (“S-ABA”), methyl jasmonate or a mixture of S-ABA and methyl jasmonate were applied to peaches after harvest via a 1-minute dip at the following concentrations: 1) water only; 2) 0.33 millimolar (“mM”) S-ABA; 3) 3.3 mM S-ABA; 4) 0.33 mM methyl jasmonate; 5) 3.3 mM methyl jasmonate; 6) 0.33 mM S-ABA and 0.33 mM methyl jasmonate; 7) 0.3 mM S-ABA and 3.3 mM methyl jasmonate; 8) 3.3 mM S-ABA and 0.33 mM methyl jasmonate or 9) 3.3 mM S-ABA and 3.3 mM methyl jasmonate. Each treatment includes 0.025% Latron B-1956® (available from J. R. Simplot Company) as an adjuvant. All peaches were subsequently dried for 30 minutes and then stored at 5 degrees Celsius for 4 weeks. Following cold storage all peaches were placed at room temperature for 1 day and then evaluated for flesh browning. Flesh browning was determined using a 6-point scale developed by Crisosto G. M. 2015 wherein a score of 1=no browning, 2=very slight browning in the pit cavity, 3=slight browning in the pit cavity and surrounding tissue, 4=moderate browning on less than 50% of the flesh, 5=severe browning on 50% to 75% of the flesh and 6=extreme browning covering most of the flesh. A flesh browning score of more than 3 was determined as a “flesh browning incident” and a score of less than 3 was determined as “healthy fruit” for efficacy purposes. […] To determine if the mixtures provided unexpected results, the observed combined efficacy (“OCE”) was divided by the expected combined efficacy (“ECE”) wherein the expected ECE is calculated by the Abbott method: wherein ECE is the expected combined efficacy and in which A and B are the quality score provided by application of the single active ingredients. If the ratio between the OCE of the mixture and the ECE of the mixture is greater than 1, then greater than expected interactions are present in the mixture. (Gisi, Synergistic Interaction of Fungicides in Mixtures, The American Phytopathological Society, 86:11, 1273-1279,1996).

[2] = tested on: Cucumbers; test: Decay evaluation of cucumbers after cold storage (Example 3); conditions: for % Healthy Fruit (decay): 2-minute dip, 5 degrees Celsius 11.5 days, then room temperature, 100% minus % disease incidence
Description: Cucumbers were harvested and waxed and maintained at room temperature until treatment. Cucumbers were divided into 9 equal sets. Each treatment type contained 11-13 cucumbers peaches and was repeated 3 times for a total of 33-39 peaches per treatment. For treatment, water, (S)-abscisic acid (“S-ABA”), methyl jasmonate or a mixture of S-ABA and methyl jasmonate were applied to cucumber after harvest via a 2-minute dip at the following concentrations: 1) water only; 2) 0.3 millimolar (“mM”) S-ABA; 3) 3 mM S-ABA; 4) 0.3 mM methyl jasmonate; 5) 3 mM methyl jasmonate; 6) 0.3 mM S-ABA and 0.3 mM methyl jasmonate; 7) 0.3 mM S-ABA and 3 mM methyl jasmonate; 8) 3 mM S-ABA and 0.3 mM methyl jasmonate or 9) 3 mM S-ABA and 3 mM methyl jasmonate. Each treatment includes 0.025% Latron B-1956® (available from J. R. Simplot Company) as an adjuvant. All cucumbers were subsequently dried for 30 minutes and then stored at 5 degrees Celsius for 11.5 days. Following cold storage all cucumbers were placed at room temperature for 4 days and then evaluated for electrolyte leakage and decay on each of days 1, 2,3 and 4. Decay evaluation was performed by counting the number of cucumbers displaying decay and calculating the percentage of affected cucumbers. Decay severity was evaluated using a 1-3 score system, wherein 1=low, 2=medium and 3=high. Healthy fruit was calculated by subtracting the % of disease incidence from 100%. Determination of unexpected results was calculated using the method described in Example 1. above.

[3] = tested on: Summer Flame 34 variety Peaches; test: Flesh mealiness of waxed peaches after cold storage (Example 2); conditions: for Fold Change from Control (Flesh Mealiness Average Score): 1.2 mM single active; for Flesh Mealiness Average Score: 1.2 mM single active in Prima Fresh 55EU wax, 5 degrees Celsius 25 days, 3 day room temperature, 3-point scale
Description: (§1) Summer Flame 34 variety Peaches were harvested and maintained at room temperature until treatment. Peaches were divided into 4 equal sets. Each treatment type contained 32 peaches and was repeated 3 times for a total of 96 peaches per treatment. For treatment, water, (S)-abscisic acid (“S-ABA”), methyl jasmonate or a mixture of S-ABA and methyl jasmonate were mixed in Prima Fresh 55EU wax and applied in a semicommercial mini packing line to simulate commercial packing conditions. Active ingredients were mixed into the wax at the following concentrations: 1) wax only; 2) 1.2 mM S-ABA; 3) 1.2 mM methyl jasmonate; 4) 1.2 mM S-ABA and 1.2 mM methyl jasmonate. All peaches were immediately stored at 5 degrees Celsius for 25 days. Following cold storage all peaches were placed at room temperature for 3 day and then evaluated for flesh browning as described in Example 1, above and also for flesh mealiness.
Flesh mealiness was determined using a 3-point scale developed by Crisosto G. M. 2015 wherein a score of 1=juicy fruit, 2=moderately mealy fruit (small amount of juice released upon squeezing) and 3=severely mealy fruit (almost no juice released upon squeezing). A flesh mealiness score of 2 or more was determined as a “flesh mealiness incident” and a score of 1 was determined as “healthy fruit” for efficacy purposes.
(§2) Determination of unexpected results was calculated using the method described in Example 1, above.

[4] = tested on: Cucumbers; test: Electrolyte leakage of cucumbers after cold storage (Example 3); conditions: for % Electrolyte Leakage: 2-minute dip, 5 degrees Celsius 11.5 days, then room temperature
Description: Cucumbers were harvested and waxed and maintained at room temperature until treatment. Cucumbers were divided into 9 equal sets. Each treatment type contained 11-13 cucumbers peaches and was repeated 3 times for a total of 33-39 peaches per treatment. For treatment, water, (S)-abscisic acid (“S-ABA”), methyl jasmonate or a mixture of S-ABA and methyl jasmonate were applied to cucumber after harvest via a 2-minute dip at the following concentrations: 1) water only; 2) 0.3 millimolar (“mM”) S-ABA; 3) 3 mM S-ABA; 4) 0.3 mM methyl jasmonate; 5) 3 mM methyl jasmonate; 6) 0.3 mM S-ABA and 0.3 mM methyl jasmonate; 7) 0.3 mM S-ABA and 3 mM methyl jasmonate; 8) 3 mM S-ABA and 0.3 mM methyl jasmonate or 9) 3 mM S-ABA and 3 mM methyl jasmonate. Each treatment includes 0.025% Latron B-1956® (available from J. R. Simplot Company) as an adjuvant. All cucumbers were subsequently dried for 30 minutes and then stored at 5 degrees Celsius for 11.5 days. Following cold storage all cucumbers were placed at room temperature for 4 days and then evaluated for electrolyte leakage and decay on each of days 1, 2,3 and 4. For electrolyte leakage cucumbers were sliced and a 1-centimeter core sample (i.e. a disc) was taken from each slice. 10 discs were placed in each 50-milliliter centrifuge tube containing 30 milliliter of deionized water and shaken for 25 minutes. Electroconductivity was measured at time zero as soon as the treatments were processed (CO). Electroconductivity was measured again after the discs were shaken in the centrifuge tubes (C1). Finally, electroconductivity was measured after boiling the cucumber sample for 20 minutes and then cooled rapidly (C2). % electrolyte leakage was calculated by the following formula (C1−C0)/C2. Determination of unexpected results was calculated using the method described in Example 1. above.

[5] = tested on: Summer Flame 34 variety Peaches; test: Flesh browning of waxed peaches after cold storage (Example 2); conditions: for Fold Change from Control (Flesh Browning Average Score): 1.2 mM single active; for Flesh Browning Average Score: 1.2 mM single active in Prima Fresh 55EU wax, 5 degrees Celsius 25 days, 3 day room temperature, 6-point scale
Experimental: Flesh browning was determined using a 6-point scale developed by Crisosto G. M. 2015 wherein a score of 1=no browning, 2=very slight browning in the pit cavity, 3=slight browning in the pit cavity and surrounding tissue, 4=moderate browning on less than 50% of the flesh, 5=severe browning on 50% to 75% of the flesh and 6=extreme browning covering most of the flesh. A flesh browning score of more than 3 was determined as a “flesh browning incident” and a score of less than 3 was determined as “healthy fruit” for efficacy purposes.
as §1, §2

| Compound | Fold Change from Control (% Healthy Fruit) ([1]; 0.33 mM single active) | % Healthy Fruit ([1]; 0.33 mM single active) | Fold Change from Control (% Healthy Fruit) ([1]; 3.3 mM single active) | % Healthy Fruit ([1]; 3.3 mM single active) | Fold Change from Control (% Healthy Fruit, decay) ([2]; 0.3 mM single active) | % Healthy Fruit (decay) ([2]; 0.3 mM single active) | Fold Change from Control (% Healthy Fruit, decay) ([2]; 3 mM single active) | % Healthy Fruit (decay) ([2]; 3 mM single active) | Fold Change from Control (Flesh Mealiness Average Score) [3] | Flesh Mealiness Average Score [3] | Fold Change from Control (% Electrolyte Leakage) ([4]; 0.3 mM single active) | % Electrolyte Leakage ([4]; 0.3 mM single active) | Fold Change from Control (% Electrolyte Leakage) ([4]; 3 mM single active) | % Electrolyte Leakage ([4]; 3 mM single active) | Fold Change from Control (Flesh Browning Average Score) [5] | Flesh Browning Average Score [5] |
| --- | --- | --- | --- | --- | --- | --- | --- | --- | --- | --- | --- | --- | --- | --- | --- | --- |
| CC/C=C\CC1C(=O)CCC1CC(=O)OC (centres unmarked) [MJ, methyl jasmonate] | 1.18 | 28.0% | 2.26 | 41.8% | −0.22 | 61.5% | −0.09 | 71.4% | −0.10 | 1.50 | −0.06 | 60.3% | −0.07 | 59.7% | −0.09 | 2.79 |
| CC1=CC(=O)CC(C)(C)[C@@]1(O)/C=C/C(C)=C/C(=O)O [S-ABA, (S)-abscisic acid] | 0.35 | 17.3% | −0.33 | 8.6% | 0.05 | 82.1% | −0.29 | 55.7% | −0.006 | 1.66 | −0.05 | 61.3% | −0.05 | 61.3% | −0.016 | 3.03 |
